The values that follow are results of earlier work, collected in patent US12377109B2, “Formulation and noncovalent stabilization of olivetolic acid derivatives” (MINGOWOOD PHARMACAL LLC, priority 2020, dated 2025).

Molecules are shown by their SMILES. Read-outs that look alike come from different tables or passages of the source.

The test system of data set [1] is MDA-MB-231 human breast cancer cells. The settings on record: MDA-MB-231 cells.
In data set [2] the test system is lithium chloride- and cisplatin-induced vomiting. Particulars: mice and shrews.
The conditions of data set [3]: for first-order rate constant k for decarboxylation: 100° C.
The mark [4] stands for this setting: 30° C., neat substances and solutions, reviewed studies.
[5] abbreviates: 40° C., neat substances and solutions, reviewed studies.

`C=C(C)C1CCC(C)=CC1c1c(O)cc(CCCCC)c(C(=O)O)c1O` (stereo not drawn) [CBDA, 3-p-mentha-1,8-dien-3-yl-6-pentyl-beta-resorcylic acid]: the pKa (commonly the pH at which an ionisable group is half protonated) is listed as 3.4. The “effect on cell migration” value in data set [1] is recorded as “inhibits migration”. For the same compound, the “lowest dose suppressing vomiting” value in data set [2] was 0.01 mg/kg. The “time to 10% degradation” value in data set [3] (25° C., extrapolated from Wang's data) is recorded as “approximately 3.7 weeks”. Besides, the half-life in data set [3] (30° C., calculated from Citti et al.) was 4.5 weeks. Further, the half-life in data set [3] (30° C., calculated from Wang et al.) was 11.6 weeks. Moreover, in data set [3] (30° C., estimated for the Cerilliant product), the half-life result was “about 12 weeks”. In addition, the half-life result in data set [3] (setting [4]) is recorded as “about 12 weeks”. Also, the decrease in potency in data set [3] (40° C. over 4 weeks, Cerilliant standard solution in acetonitrile) was 69.8%. In data set [3] (40° C., from Wang et al. parameters), the half-life is recorded as 4.06 weeks. Moreover, the half-life result in data set [3] (setting [5]) is listed as “about 4 weeks”. Also, in data set [3] (80° C., Wang et al.), the decay constant is 5.35e-05 s⁻¹. The half-life in data set [3] (80° C., Wang's estimate) is 3.6 h. The half-life entry in data set [3] (80° C., in hemp oil as extracted, Citti et al.) is “approximately 4.9 hours”. In data set [3], the “first-order rate constant k for decarboxylation” value was 4.13×10^−4. In data set [3] (Wang et al.), the “activation energy of degradation” value was 27.5 kcal/mol and the “prefactor in the expression for the degradation rate constant” value is 2e+12 s⁻¹. In addition, in data set [3] (in hemp oil, Citti et al.), the “activation energy of degradation” value is 21.4 kcal/mol and the prefactor is 6.9e+08 L/s.
For the compound `CCCCCc1cc(O)c(C/C=C(\C)CCC=C(C)C)c(O)c1C(=O)O` [CBGA, 3-[(2E)-3,7-dimethylocta-2,6-dienyl]-2,4-dihydroxy-6-pentylbenzoic acid], the pKa is listed as 2.9.
With `CCCCCc1cc2c(c(O)c1C(=O)O)[C@@H]1C=C(C)CC[C@H]1C(C)(C)O2` [THCA, (6aR,10aR)-1-hydroxy-6,6,9-trimethyl-3-pentyl-6a,7,8,10a-tetrahydrobenzo[c]chromene-2-carboxylic acid], the half-life entry in data set [3] (setting [4]) is reported as “about 12 weeks”; in data set [3] (setting [5]) it was “about 4 weeks”. For the same compound, the loss entry in data set [3] (40% and 90% ethanol tinctures, 4° C., dark, 6 months, Peschel) is “over 50%”. For the same compound, the “first-order rate constant k for decarboxylation” value in data set [3] is recorded as 4.93×10^−4.
